Literature values as cited in patent publication US20110155130A1, “Dronabinol Treatment for Migraines” (Unimed Pharmaceuticals, Inc., priority 2005, published 2011).

Settings: 5 mg to 20 mg oral doses of THC; randomized controlled clinical trials

SMILES: CCCCCc1cc(O)c2c(c1)OC(C)(C)[C@@H]1CCC(C)=C[C@@H]21 [THC, (6a R-trans)-6a,7,8,10a-tetrahydro-6,6,9-trimethyl-3-pentyl-6H-dibenzo[b,d]pyran-1-ol]
- effectiveness compared with codeine: as effective as 50 mg to 120 mg of codeine
